molecular target: T1, SARM1 (50-724) (Homo sapiens, UniProt Q6SZW1); assay: SARM1 (50-724) enzymatic assay (NMN-activated NAD+ hydrolysis, LC-MS/MS readout); type: biochemical; conditions: purified SARM1 (50-724) 2 nM, 200 μM NMN activator, 100 μM NAD+ substrate, 1 h at room temperature, read-out: IC50 (SARM1 inhibitory activity)
T1 construct: Purified SARM1 (50-724) with a final concentration of 2 nM
T1 sequence (Q6SZW1 50-724): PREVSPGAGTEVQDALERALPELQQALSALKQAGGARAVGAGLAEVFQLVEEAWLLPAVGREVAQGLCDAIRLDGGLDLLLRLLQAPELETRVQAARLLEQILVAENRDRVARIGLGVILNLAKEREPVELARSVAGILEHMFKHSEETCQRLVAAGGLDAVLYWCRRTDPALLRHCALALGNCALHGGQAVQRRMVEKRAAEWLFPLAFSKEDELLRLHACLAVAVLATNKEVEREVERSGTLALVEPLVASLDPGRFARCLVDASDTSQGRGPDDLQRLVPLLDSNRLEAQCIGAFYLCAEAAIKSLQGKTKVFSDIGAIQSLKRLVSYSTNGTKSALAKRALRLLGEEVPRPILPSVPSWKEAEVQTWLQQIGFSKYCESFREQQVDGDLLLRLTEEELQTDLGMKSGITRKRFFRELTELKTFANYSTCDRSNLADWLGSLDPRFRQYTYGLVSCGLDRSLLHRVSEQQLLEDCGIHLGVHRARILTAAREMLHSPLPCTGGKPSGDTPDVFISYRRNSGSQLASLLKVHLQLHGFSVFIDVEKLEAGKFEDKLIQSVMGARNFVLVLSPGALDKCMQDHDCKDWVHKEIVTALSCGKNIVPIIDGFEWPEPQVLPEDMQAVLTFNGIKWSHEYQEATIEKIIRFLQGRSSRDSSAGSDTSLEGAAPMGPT
Summary of the method: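 NMN-activated NAD+ hydrolysis: compound pre-incubated 15 min at room temperature with 2 nM SARM1 (50-724) at 1% DMSO in DPBS; 100 μM NAD+ plus 200 μM NMN added and reacted 1 h at RT. Acetonitrile quench, LC-MS/MS readout.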

| Structure (SMILES) | IC50 [nM] |
| --- | --- |
| Cc1cc(-c2ccc3[nH]c(C(=O)N(CC4COC4)c4cccc(Cl)c4Cl)nc3c2)[nH]n1 [Compound 122] | 101 to 500 |
| O=C(c1nc2cc(C(F)(F)F)ccc2[nH]1)N(CC1CC(O)C1)c1cccc(Cl)c1Cl (centres unmarked) [Compound 177, N-(2,3-dichlorophenyl)-N-((3-hydroxycyclobutyl)methyl)-5-(trifluoromethyl)-1H-benzo[d]imidazole-2-carboxamide] | ≤ 100 |
| O=C(c1nc2cc(C(F)(F)F)ccc2[nH]1)N(CCN1CC(O)C1)c1cccc(Cl)c1Cl [Compound 179, N-(2,3-dichlorophenyl)-N-(2-(3-hydroxyazetidin-1-yl)ethyl)-5-(trifluoromethyl)-1H-benzo[d]imidazole-2-carboxamide] | ≤ 100 |
| COC(=O)CN(C(=O)c1nc2cc(C(F)(F)F)ccc2[nH]1)c1cccc(Cl)c1Cl [Compound 140, Methyl N-(2,3-dichlorophenyl)-N-(5-(trifluoromethyl)-1H-benzo[d]imidazole-2-carbonyl)glycinate] | ≤ 100 |
| Cc1ccc2[nH]c(C(=O)N(C)c3cc(F)cc(F)c3)c(CO)c2c1 [Compound 19, N-(3,5-difluorophenyl)-3-(hydroxymethyl)-N,5-dimethyl-1H-indole-2-carboxamide] | ≥ 1000 |
| Cc1ccc2[nH]c(C(=O)N(C)c3ccc(Cl)c(C(F)(F)F)c3)c(CO)c2c1 [Compound 11, N-(4-chloro-3-(trifluoromethyl)phenyl)-3-(hydroxymethyl)-N,5-dimethyl-1H-indole-2-carboxamide] | ≥ 1000 |
| Cc1ccc2[nH]c(C(=O)N(C)C3CCNCC3)c(CNc3ccccn3)c2c1 [Compound 84, N,5-dimethyl-N-(piperidin-4-yl)-3-((pyridin-2-ylamino)methyl)-1H-indole-2-carboxamide] | ≥ 1000 |
| Cc1ccc2[nH]c(C(=O)N(C)c3cccc(Cl)c3Cl)c(C#N)c2c1 [Compound 69, 3-cyano-N-(2,3-dichlorophenyl)-N,5-dimethyl-1H-indole-2-carboxamide] | ≤ 100 |
| CN=S(C)(=O)CCCN(C(=O)c1nc2cc(C(F)(F)F)ccc2[nH]1)c1cccc(F)c1Cl (centres unmarked) [Compound 225, N-(2-chloro-3-fluorophenyl)-N-(3-(N,S-dimethylsulfonimidoyl)propyl)-5-(trifluoromethyl)-1H-benzo[d]imidazole-2-carboxamide] | ≤ 100 |
| CN(C(=O)c1nc2cc(C(F)(F)F)ccc2[nH]1)c1cc(F)cc(Cl)c1Cl [Compound 120, N-(2,3-dichloro-5-fluorophenyl)-N-methyl-5-(trifluoromethyl)-1H-benzo[d]imidazole-2-carboxamido] | ≤ 100 |
| Cc1c(Cl)cccc1N(CCO)C(=O)c1nc2cc(C(F)(F)F)ccc2[nH]1 [Compound 137, N-(3-chloro-2-methylphenyl)-N-(2-hydroxyethyl)-5-(trifluoromethyl)-1H-benzo[d]imidazole-2-carboxamide] | ≤ 100 |
| O=C(c1nc2cc(C(F)(F)F)ccc2[nH]1)N(CC1(F)COC1)c1cccc(F)c1Cl [Compound 186, N-(2-chloro-3-fluorophenyl)-N-((3-fluorooxetan-3-yl)methyl)-5-(trifluoromethyl)-1H-benzo[d]imidazole-2-carboxamide] | ≤ 100 |
| Cc1ccc2[nH]c(C(=O)N(C)c3ccc(Cl)cc3)c(CO)c2c1 [Compound 25, N-(4-chlorophenyl)-3-(hydroxymethyl)-N,5-dimethyl-1H-indole-2-carboxamide] | ≥ 1000 |
| Cc1c(F)cccc1N(CCO)C(=O)c1nc2cc(C(F)(F)F)ccc2[nH]1 [Compound 158, N-(3-fluoro-2-methylphenyl)-N-(2-hydroxyethyl)-5-(trifluoromethyl)-1H-benzo[d]imidazole-2-carboxamide] | ≤ 100 |
| O=C(c1nc2cc(C3CC3)ccc2[nH]1)N(CC(F)(F)CO)c1ccc(F)c(F)c1Cl [Compound 222] | ≤ 100 |
| O=C(c1nc2cc(C(F)(F)F)ccc2[nH]1)N(CCO)c1nccc(Cl)c1Cl [Compound 100, N-(3,4-dichloropyridin-2-yl)-N-(2-hydroxyethyl)-5-(trifluoromethyl)-1H-benzo[d]imidazole-2-carboxamide] | ≤ 100 |
| N#Cc1ccc(Cl)c(Cl)c1N(CCO)C(=O)c1nc2cc(C(F)(F)F)ccc2[nH]1 [Compound 115, N-(2,3-dichloro-6-cyanophenyl)-N-(2-hydroxyethyl)-5-(trifluoromethyl)-1H-benzo[d]imidazole-2-carboxamide] | ≤ 100 |
| O=C(c1nc2cc(C(F)(F)F)ccc2[nH]1)N(c1cccc(F)c1Cl)C1CCS(=O)(=O)C1 (racemic) [Compound 228, N-(2-chloro-3-fluorophenyl)-N-(1,1-dioxidotetrahydrothiophen-3-yl)-5-(trifluoromethyl)-1H-benzo[d]imidazole-2-carboxamide] | ≤ 100 |
| Cc1ccc2[nH]c(C(=O)N(CCO)c3cccc(Cl)c3Cl)nc2c1 [Compound 50, N-(2,3-dichlorophenyl)-N-(2-hydroxyethyl)-5-methyl-1H-benzo[d]imidazole-2-carboxamide] | ≥ 1000 |
| Cc1ccc2[nH]c(C(=O)N(CCO)c3cccc(Cl)c3Cl)c(C#N)c2c1 [Compound 71, 3-cyano-N-(2,3-dichlorophenyl)-N-(2-hydroxyethyl)-5-methyl-1H-indole-2-carboxamide] | ≤ 100 |
| O=C(c1nc2cc(C(F)(F)F)ccc2[nH]1)N(CCO)c1c(Cl)cccc1Cl [Compound 159, N-(2,6-dichlorophenyl)-N-(2-hydroxyethyl)-5-(trifluoromethyl)-1H-benzo[d]imidazole-2-carboxamide] | 101 to 500 |
| O=C(c1nc2cc(C(F)(F)F)ccc2[nH]1)N(CC(O)CO)c1cccc(Cl)c1Cl (racemic) [Compound 131, N-(2,3-dichlorophenyl)-N-(2,3-dihydroxypropyl)-5-(trifluoromethyl)-1H-benzo[d]imidazole-2-carboxamide] | ≤ 100 |
| O=C(c1nc2cc(C(F)(F)F)ccc2[nH]1)N(CCN1CC(F)(F)C1)c1cccc(Cl)c1Cl [Compound 116, N-(2,3-dichlorophenyl)-N-(2-(3,3-difluoroazetidin-1-yl)ethyl)-5-(trifluoromethyl)-1H-benzo[d]imidazole-2-carboxamide] | ≤ 100 |

Other lines, results leading:

| IC50 [nM] | Structure (SMILES) |
| --- | --- |
| ≥ 1000 | Cc1ccc2[nH]c(C(=O)N(C)C3CCCC3)c(CNc3cn[nH]c3)c2c1 [Compound 81, 3-(((1H-pyrazol-4-yl)amino)methyl)-N-cyclopentyl-N,5-dimethyl-1H-indole-2-carboxamide] |
| ≥ 1000 | CNCCN(C(=O)c1nc2cc(C)ccc2[nH]1)C1CCCC1 [Compound 63, N-cyclopentyl-5-methyl-N-(2-(methylamino)ethyl)-1H-benzo[d]imidazol-2-carboxamide] |
| ≥ 1000 | CN(C(=O)c1nc2c(C3CC(O)C3)cccc2[nH]1)C1CCCC1 (centres unmarked) [Compound 176, N-cyclopentyl-4-((1s,3s)-3-hydroxycyclobutyl)-N-methyl-1H-benzo[d]imidazole-2-carboxamide] |
| 101 to 500 | Cc1ccc2[nH]c(C(=O)N(C)C3CCCC3)nc2c1C#N [Compound 97, 4-cyano-N-cyclopentyl-N,5-dimethyl-1H-benzo[d]imidazole-2-carboxamide] |
| ≥ 1000 | CN(C(=O)c1nc2ccccc2[nH]1)C1CCCC1 [Compound 51, N-cyclopentyl-N-methyl-1H-benzo[d]imidazole-2-carboxamide] |
| ≥ 1000 | CN(C(=O)c1[nH]c2cc(Cl)cc(Cl)c2c1CO)C1CCCC1 [Compound 31, 4,6-dichloro-N-cyclopentyl-3-(hydroxymethyl)-N-methyl-1H-indole-2-carboxamide] |
| ≤ 100 | Cc1ccc2[nH]c(C(=O)N(C)C3CCCC3)c(C(N)=O)c2c1 [Compound 96, N2-cyclopentyl-N2,5-dimethyl-1H-indole-2,3-dicarboxamide] |
| ≥ 1000 | CN(C(=O)c1[nH]c2cc(Cl)ccc2c1CO)C1CCCC1 [Compound 41, 6-chloro-N-cyclopentyl-3-(hydroxymethyl)-N-methyl-1H-indole-2-carboxamide] |
| ≤ 100 | CN(C(=O)c1nc2cc(C(F)(F)F)ccc2[nH]1)C1CCCC1 [Compound 48, N-cyclopentyl-N-methyl-5-(trifluoromethyl)-1H-benzo[d]imidazole-2-carboxamide] |
| ≥ 1000 | Cc1ccc2[nH]c(C(=O)N(C)C3CCCC3)c(CNc3ncc[nH]3)c2c1 [Compound 77, 3-(((1H-imidazol-2-yl)amino)methyl)-N-cyclopentyl-N,5-dimethyl-1H-indole-2-carboxamide] |
| ≥ 1000 | Cc1ccc2[nH]c(C(=O)N(CCN(C)C)C3CCCC3)nc2c1 [Compound 64, N-cyclopentyl-N-(2-(dimethylamino)ethyl)-5-methyl-1H-benzo[d]imidazole-2-carboxamide] |
| ≥ 1000 | CN(C(=O)c1[nH]c2ccc(F)cc2c1CO)C1CCCC1 [Compound 32, N-cyclopentyl-5-fluoro-3-(hydroxymethyl)-N-methyl-1H-indole-2-carboxamide] |
